Test system: C. neoformans
Experiment: in vitro growth inhibition
Format: cell-based, Cryptococcus neoformans
Conditions: highest tested concentration 20 μg/mL; NA = not active

- C. neoformans IC50 (concentration that affords 50% inhibition of growth): inactive
SMILES: COc1ccc(-c2nc(C[C@H](N)C(=O)N[C@@H](CCCNC(=N)N)C(=O)NCc3ccccc3)c[nH]2)cc1 [Peptide 5d]

— article PMC4066839 (MedChemComm, 2014)
